Among the data in ChEMBL document CHEMBL1201862, “PubChem BioAssay data set” (2004) are AC50, IC50 and EC50 values, retold here.

Structures are written as SMILES. Active and inactive are the calls of the source. Bounds are passed on as bounds.

Assay [1] is described as follows: non-specific 3'UTR reporter inhibition in Clone20-Shn3RL – cell-based, Renilla luciferase, cherry-picked, counter-screen for Shn3 inhibitor project, dose response (AID 624133). The assay is classed as functional.
The target in assay [2] is T1, COUP transcription factor 2 (Homo sapiens, UniProt P24468).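 Note: HEK293 cells transiently cotransfected with COUP-TFII expression vector and reporter; luciferase reporter luminescence driven by COUP-TFII from the pX2-168 reporter plasmid.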
T1 sequence (P24468 whole entry): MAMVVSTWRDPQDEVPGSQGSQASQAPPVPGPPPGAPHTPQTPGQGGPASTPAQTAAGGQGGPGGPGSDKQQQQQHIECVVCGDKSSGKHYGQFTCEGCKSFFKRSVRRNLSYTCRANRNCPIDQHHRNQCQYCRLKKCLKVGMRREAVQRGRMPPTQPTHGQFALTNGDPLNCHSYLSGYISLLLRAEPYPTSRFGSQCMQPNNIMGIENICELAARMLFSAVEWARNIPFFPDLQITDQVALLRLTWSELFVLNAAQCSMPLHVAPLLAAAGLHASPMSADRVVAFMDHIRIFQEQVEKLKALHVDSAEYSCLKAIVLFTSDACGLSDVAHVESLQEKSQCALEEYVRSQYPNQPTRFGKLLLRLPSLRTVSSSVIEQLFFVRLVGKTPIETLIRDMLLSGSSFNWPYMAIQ
As to the kind of experiment: Luminescence-based cell-based high throughput dose response assay to identify inhibitors of COUP-TFII (NR2F2). In kind it is functional.

Assay [3] can be described thus: loss of viability in HepG2 cells – cell-based, CellTiter-Glo, cherry-picked, cytotoxicity control for Shn3 inhibitor project, dose response (AID 624134). In kind it is functional. (Cellular ATP, detected with luciferase, serves as a proxy for viable cell number.)
For assay [4], the system named is INS1. The assay can be described thus: INS-1E survival protection against cytokine death – cell-based, luminescence, retest, dose response (AID 449756).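 Note: cell death triggered by IL-1 beta plus TNF-alpha plus IFN-gamma mixture; protective hits raise ATP signal compared with cytokine alone wells.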 The note with it: Rattus norvegicus. In kind it is functional.
Assay [5] deals with Galanin receptor type 3 (Homo sapiens, UniProt O60755). The assay can be described thus: Fluorescence-based cell-based primary high throughput dose response assay to identify antagonists of the Galanin Receptor 3 (GalR3). In kind it is functional.
Assay [6] is described as follows: reduction of Shn3 3'UTR-driven luciferase in osteoblasts – cell-based, Clone20 osteoblasts, firefly luciferase, cherry-picked, dose response (AID 624132).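 Note: firefly luciferase luminescence from reporter carrying the Shn3 3'UTR in osteoblasts.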 The assay is classed as functional.
Assay [7] can be described thus: cells. To be noted: HEK-CNG. In kind it is functional, cell-based.
Assay [8] concerns the target Mu-type opioid receptor (Homo sapiens, UniProt P35372). The assay is classed as functional, cell-based.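 Note: U2OS cells with beta-arrestin recruitment to OPRM1 by beta-gal complementation.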
The target of assay [9] is 5-hydroxytryptamine receptor 2A (Mus musculus, UniProt P35363). The assay is classed as functional, cell-based.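 Note: CHO-K1 cells with tagged receptor and beta-arrestin; agonist potency measured as compound-induced activation of the receptor.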
The target in assay [10] is T2, Nuclear receptor subfamily 0 group B member 1 (Homo sapiens, UniProt P51843).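 Note: HEK293T cells transfected with SF-1 and DAX-1 plus StAR promoter luciferase reporter.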
T2 sequence (P51843 whole entry): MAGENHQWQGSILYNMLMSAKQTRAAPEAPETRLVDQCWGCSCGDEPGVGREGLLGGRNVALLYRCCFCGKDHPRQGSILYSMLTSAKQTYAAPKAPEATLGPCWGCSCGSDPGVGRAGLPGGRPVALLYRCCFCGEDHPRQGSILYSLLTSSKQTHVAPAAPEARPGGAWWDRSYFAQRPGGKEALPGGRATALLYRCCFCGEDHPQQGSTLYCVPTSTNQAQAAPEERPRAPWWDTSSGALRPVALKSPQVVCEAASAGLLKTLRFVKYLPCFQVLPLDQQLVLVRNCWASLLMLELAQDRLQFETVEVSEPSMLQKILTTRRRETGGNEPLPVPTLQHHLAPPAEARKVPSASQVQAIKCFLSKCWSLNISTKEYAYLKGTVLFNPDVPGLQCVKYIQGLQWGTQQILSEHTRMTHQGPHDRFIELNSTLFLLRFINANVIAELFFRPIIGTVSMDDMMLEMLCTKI
The assay is classed as functional, cell-based.

Assay [11] can be described thus: cells. In kind it is functional, cell-based.
Assay [12] concerns the target T3, Sentrin-specific protease 8 (Homo sapiens, UniProt Q96LD8).
T3 sequence (Q96LD8 whole entry): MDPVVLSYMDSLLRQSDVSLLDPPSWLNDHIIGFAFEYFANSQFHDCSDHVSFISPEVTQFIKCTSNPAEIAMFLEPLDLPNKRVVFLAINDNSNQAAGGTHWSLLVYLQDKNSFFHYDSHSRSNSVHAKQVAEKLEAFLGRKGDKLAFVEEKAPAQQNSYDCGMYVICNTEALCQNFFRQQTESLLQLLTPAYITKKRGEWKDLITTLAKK
In kind it is functional.

In assay [13] the target is T3, Sentrin-specific protease 8. In kind it is functional. The source holds these as a separate data set.
In assay [14] the target is Beta-galactosidase (Escherichia coli, UniProt Q8VNN2). The assay can be described thus: Dose response counterscreen for EBI2 assay utilizing the enzyme, b-galactosidase. The assay is classed as functional. For orientation: The purpose of a counterscreen is to sort out artefacts and off-target activity.
Assay [15] addresses T4, Low molecular weight phosphotyrosine protein phosphatase (Homo sapiens, UniProt P24666).
T4 sequence (P24666 whole entry): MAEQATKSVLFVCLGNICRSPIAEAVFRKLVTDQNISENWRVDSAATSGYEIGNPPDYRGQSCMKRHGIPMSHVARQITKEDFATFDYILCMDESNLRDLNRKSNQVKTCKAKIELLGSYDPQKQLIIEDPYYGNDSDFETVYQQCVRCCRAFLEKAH
In kind it is functional. To be noted: read-out: IC50_Mean.

The target in assay [16] is 72 kDa type IV collagenase (Homo sapiens, UniProt P08253). As to the kind of experiment: Dose Response validation of uHTS RPN11 inhibitor hits using a MMP-2 Fluorescence assay. In kind it is functional.
72 kDa type IV collagenase, sequence (P08253 whole entry): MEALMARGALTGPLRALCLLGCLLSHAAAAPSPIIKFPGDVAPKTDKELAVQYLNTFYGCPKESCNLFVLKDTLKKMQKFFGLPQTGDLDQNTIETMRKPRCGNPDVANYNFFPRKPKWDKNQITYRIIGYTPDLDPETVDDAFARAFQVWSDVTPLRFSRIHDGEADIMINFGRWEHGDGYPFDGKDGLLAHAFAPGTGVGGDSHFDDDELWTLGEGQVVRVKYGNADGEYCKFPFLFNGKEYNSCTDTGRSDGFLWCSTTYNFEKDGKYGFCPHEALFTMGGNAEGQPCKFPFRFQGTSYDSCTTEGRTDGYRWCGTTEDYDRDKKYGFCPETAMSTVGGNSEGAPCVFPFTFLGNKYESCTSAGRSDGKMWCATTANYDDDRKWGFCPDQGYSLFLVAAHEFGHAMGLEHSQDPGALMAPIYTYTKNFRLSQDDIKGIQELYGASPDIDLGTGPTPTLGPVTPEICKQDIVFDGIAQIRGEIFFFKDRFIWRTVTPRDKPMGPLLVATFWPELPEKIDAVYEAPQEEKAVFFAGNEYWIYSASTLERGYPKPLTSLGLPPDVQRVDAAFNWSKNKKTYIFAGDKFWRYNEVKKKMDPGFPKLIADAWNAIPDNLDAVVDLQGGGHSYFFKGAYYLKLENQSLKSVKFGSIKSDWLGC
Assay [17] addresses T4, Low molecular weight phosphotyrosine protein phosphatase. In kind it is functional. The note with it: read-out: IC50_Mean. The source holds these as a separate data set.
The target of assay [18] is Beta Lactamase (Pseudomonas aeruginosa, UniProt Q932Y6).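 Note: confirmatory high-throughput screen measuring VIM-2 metallo-beta-lactamase inhibition by epi-absorbance in dose response.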
Beta Lactamase, sequence (Q932Y6 whole entry): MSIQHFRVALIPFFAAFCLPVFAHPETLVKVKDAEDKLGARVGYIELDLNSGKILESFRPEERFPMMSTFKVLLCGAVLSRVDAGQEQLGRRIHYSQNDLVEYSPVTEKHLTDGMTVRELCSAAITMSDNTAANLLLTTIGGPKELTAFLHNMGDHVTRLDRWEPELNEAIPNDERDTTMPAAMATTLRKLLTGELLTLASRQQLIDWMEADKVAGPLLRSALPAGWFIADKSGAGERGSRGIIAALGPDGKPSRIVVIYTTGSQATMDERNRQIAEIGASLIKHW
For assay [19], the target named is Prothrombin (Bos taurus, UniProt P00735). The assay can be described thus: thrombin protease inhibitors – biochemical, fluorescence polarization, uHTS hits, dose response (AID 602369). The assay is classed as functional. In general terms: In fluorescence polarisation assays a small probe gives low polarisation when free and higher when bound to something large.

The target in assay [20] is Beta-lactamase (Salmonella choleraesuis (strain SC-B67), UniProt Q5J463).
Beta-lactamase (Salmonella choleraesuis (strain SC-B67), UniProt Q5J463), sequence (Q5J463 whole entry): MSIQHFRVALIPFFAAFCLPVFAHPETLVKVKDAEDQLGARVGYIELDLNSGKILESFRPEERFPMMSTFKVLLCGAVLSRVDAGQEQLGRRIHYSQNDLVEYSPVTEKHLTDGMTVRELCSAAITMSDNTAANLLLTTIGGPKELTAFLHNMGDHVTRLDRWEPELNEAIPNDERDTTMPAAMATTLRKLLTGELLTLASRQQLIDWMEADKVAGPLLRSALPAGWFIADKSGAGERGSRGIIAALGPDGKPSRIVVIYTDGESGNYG
For assay [21], the target named is 26S proteasome non-ATPase regulatory subunit 14 (Homo sapiens, UniProt O00487). As to the kind of experiment: inhibition of proteasome subunit RPN11 – biochemical, fluorescence polarization, uHTS hits, confirmation (AID 602368). The assay is classed as functional.
26S proteasome non-ATPase regulatory subunit 14, sequence (O00487 whole entry): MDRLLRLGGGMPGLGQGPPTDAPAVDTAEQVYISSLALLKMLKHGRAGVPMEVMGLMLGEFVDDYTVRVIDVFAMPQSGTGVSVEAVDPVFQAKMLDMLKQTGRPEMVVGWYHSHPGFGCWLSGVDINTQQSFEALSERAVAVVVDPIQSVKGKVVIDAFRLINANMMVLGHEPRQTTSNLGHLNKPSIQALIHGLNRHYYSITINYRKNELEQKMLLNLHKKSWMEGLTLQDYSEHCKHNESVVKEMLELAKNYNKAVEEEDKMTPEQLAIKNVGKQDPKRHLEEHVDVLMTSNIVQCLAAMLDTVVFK
Assay [22] deals with Beta-lactamase (Pseudomonas aeruginosa, UniProt Q79MP6).
Beta-lactamase (Pseudomonas aeruginosa, UniProt Q79MP6), sequence (Q79MP6 whole entry): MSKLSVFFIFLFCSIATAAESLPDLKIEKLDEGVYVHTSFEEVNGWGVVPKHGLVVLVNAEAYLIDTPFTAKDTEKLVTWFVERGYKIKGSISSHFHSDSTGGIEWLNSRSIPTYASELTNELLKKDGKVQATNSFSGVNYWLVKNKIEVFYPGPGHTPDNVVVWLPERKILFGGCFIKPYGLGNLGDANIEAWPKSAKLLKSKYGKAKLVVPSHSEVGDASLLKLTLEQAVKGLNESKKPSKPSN
Assay [23] is described as follows: cells. In kind it is functional, cell-based. The source holds these as a separate data set.
Assay [24] has as its target T5, Trace amine-associated receptor 1 (Homo sapiens, UniProt Q96RJ0).
T5 sequence (Q96RJ0 whole entry): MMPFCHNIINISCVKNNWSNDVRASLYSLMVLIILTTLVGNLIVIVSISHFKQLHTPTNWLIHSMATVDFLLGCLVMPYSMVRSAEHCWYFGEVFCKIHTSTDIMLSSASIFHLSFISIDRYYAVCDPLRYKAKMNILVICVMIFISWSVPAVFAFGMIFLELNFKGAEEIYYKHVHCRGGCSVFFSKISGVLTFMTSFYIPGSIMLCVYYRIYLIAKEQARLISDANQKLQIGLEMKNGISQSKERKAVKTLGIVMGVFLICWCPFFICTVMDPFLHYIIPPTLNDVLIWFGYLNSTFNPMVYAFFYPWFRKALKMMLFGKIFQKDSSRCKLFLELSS
The assay can be described thus: Counterscreen for agonists of the human trace amine associated receptor 1 (hTAAR1): Fluorescence-based cell-based high throughput dose response assay to identify hTAAR1 agonist that also desensitize TAAR1 receptor response. The assay is classed as functional.

A short description of assay [25]: cells. The assay is classed as functional, cell-based. This is another data set of the same source.
For assay [26], the target named is T5, Trace amine-associated receptor 1. The assay can be described thus: Fluorescence-based cell-based high throughput dose response assay to identify agonists of the human trace amine associated receptor 1 (TAAR1). In kind it is functional.
The target in assay [27] is T6, Rac GTPase-activating protein 1 (Homo sapiens, UniProt Q9H0H5).
T6 sequence (Q9H0H5 whole entry): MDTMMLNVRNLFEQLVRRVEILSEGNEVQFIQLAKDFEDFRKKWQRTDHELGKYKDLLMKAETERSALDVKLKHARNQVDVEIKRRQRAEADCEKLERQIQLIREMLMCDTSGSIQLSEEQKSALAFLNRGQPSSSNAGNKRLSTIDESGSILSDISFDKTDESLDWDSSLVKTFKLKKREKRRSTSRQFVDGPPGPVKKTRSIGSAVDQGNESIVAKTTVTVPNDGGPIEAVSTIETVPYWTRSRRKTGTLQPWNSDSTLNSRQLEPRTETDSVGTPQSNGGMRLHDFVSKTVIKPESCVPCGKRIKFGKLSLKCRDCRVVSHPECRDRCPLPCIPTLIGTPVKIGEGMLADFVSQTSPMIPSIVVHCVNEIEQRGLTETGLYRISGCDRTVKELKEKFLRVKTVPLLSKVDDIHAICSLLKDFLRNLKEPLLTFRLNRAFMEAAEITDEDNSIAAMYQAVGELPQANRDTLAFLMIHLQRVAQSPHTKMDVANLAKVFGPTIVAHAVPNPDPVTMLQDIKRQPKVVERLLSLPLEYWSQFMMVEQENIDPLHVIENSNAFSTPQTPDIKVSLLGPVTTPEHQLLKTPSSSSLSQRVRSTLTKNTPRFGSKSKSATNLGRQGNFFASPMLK
As to the kind of experiment: blockers of MgcRacGAP-driven Rac1 GTP hydrolysis – biochemical, ADP Hunter fluorescence, primary and confirmatory, confirmation (AID 624330). In kind it is functional.

For assay [28], the target named is T7, Small ubiquitin-related modifier 1 (Homo sapiens, UniProt P63165). The assay can be described thus: SUMO1 protein-protein binding blockers, potency – biochemical, FRET, dose response (AID 624383). The assay is classed as functional. The note with it: read-out: IC50_Mean.
T7 sequence (P63165 whole entry): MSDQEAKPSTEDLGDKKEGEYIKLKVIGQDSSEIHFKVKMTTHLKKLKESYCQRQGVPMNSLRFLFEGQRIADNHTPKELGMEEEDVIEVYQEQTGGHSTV
Assay [29] concerns the target T8, Voltage-gated N-type calcium channel alpha-1B subunit/Amyloid beta A4 precursor protein-binding family A member 1 (Homo sapiens, UniProt Q00975+Q02410). In kind it is protein assay.
Assay [30] deals with T7, Small ubiquitin-related modifier 1. The assay can be described thus: SUMO1 protein interaction blockers, potency – biochemical, fluorescence polarization, uHTS hits, dose response (AID 624382). The assay is classed as functional. To be noted: read-out: IC50_Mean.
In assay [31] the target is T8, Voltage-gated N-type calcium channel alpha-1B subunit/Amyloid beta A4 precursor protein-binding family A member 1. In kind it is protein assay. This is another data set of the same source.

T8 sequence (Q00975 whole entry): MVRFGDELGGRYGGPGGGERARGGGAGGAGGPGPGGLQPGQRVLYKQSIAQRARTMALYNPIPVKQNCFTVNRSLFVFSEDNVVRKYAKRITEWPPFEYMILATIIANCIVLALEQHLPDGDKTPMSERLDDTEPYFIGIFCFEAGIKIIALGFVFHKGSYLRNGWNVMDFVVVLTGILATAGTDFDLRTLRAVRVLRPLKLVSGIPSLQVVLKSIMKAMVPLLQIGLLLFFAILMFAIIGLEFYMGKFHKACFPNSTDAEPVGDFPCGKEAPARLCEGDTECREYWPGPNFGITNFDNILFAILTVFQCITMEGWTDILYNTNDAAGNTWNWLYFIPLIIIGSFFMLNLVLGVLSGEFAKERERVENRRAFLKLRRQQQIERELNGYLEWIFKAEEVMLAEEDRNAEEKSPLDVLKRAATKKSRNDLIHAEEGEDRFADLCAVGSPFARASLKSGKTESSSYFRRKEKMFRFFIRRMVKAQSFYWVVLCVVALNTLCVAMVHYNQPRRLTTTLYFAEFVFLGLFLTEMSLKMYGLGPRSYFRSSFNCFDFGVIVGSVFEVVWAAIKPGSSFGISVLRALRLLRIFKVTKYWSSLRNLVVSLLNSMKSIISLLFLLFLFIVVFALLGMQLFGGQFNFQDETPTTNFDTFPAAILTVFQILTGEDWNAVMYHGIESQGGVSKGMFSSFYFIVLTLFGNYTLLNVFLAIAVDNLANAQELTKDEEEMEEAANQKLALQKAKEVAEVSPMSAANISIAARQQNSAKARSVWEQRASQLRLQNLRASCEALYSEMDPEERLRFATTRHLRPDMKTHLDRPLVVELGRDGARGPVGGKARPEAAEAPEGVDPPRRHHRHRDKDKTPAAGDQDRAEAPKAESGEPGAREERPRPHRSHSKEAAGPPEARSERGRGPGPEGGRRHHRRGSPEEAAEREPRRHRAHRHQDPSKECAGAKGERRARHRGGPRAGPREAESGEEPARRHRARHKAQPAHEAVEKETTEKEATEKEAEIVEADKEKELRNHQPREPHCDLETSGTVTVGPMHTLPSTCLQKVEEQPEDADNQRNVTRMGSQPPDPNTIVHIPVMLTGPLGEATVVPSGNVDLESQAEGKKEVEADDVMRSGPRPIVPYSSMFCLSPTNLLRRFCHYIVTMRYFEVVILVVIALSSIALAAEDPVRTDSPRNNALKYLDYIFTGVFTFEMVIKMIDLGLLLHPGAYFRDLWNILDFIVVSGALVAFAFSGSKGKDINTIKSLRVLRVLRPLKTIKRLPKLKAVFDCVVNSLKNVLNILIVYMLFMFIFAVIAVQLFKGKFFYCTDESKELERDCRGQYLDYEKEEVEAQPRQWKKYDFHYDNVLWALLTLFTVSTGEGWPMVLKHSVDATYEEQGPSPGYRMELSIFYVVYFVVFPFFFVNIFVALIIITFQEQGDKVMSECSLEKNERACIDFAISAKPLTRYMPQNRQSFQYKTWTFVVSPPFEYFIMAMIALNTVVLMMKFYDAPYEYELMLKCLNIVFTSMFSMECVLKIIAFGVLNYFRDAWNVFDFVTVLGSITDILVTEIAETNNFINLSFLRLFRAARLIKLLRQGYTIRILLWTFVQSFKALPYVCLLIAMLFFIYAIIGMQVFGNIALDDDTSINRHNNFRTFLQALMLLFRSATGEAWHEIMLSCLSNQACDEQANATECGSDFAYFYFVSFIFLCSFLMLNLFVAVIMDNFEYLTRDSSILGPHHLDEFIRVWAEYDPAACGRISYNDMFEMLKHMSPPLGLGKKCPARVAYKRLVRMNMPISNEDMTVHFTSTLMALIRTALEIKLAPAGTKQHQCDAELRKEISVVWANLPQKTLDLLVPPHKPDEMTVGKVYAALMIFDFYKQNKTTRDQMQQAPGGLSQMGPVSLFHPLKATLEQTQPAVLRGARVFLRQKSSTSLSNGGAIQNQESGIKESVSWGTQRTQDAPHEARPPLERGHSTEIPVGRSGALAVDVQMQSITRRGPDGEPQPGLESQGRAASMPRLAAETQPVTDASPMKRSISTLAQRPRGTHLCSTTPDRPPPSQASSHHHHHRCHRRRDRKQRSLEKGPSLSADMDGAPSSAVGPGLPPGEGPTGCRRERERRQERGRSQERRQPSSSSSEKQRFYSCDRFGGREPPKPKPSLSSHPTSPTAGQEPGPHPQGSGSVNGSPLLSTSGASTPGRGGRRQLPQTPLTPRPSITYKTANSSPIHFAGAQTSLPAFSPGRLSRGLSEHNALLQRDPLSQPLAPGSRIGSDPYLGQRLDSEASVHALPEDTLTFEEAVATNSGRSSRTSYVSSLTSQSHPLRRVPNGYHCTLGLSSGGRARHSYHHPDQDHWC
T8 sequence (Q02410 whole entry): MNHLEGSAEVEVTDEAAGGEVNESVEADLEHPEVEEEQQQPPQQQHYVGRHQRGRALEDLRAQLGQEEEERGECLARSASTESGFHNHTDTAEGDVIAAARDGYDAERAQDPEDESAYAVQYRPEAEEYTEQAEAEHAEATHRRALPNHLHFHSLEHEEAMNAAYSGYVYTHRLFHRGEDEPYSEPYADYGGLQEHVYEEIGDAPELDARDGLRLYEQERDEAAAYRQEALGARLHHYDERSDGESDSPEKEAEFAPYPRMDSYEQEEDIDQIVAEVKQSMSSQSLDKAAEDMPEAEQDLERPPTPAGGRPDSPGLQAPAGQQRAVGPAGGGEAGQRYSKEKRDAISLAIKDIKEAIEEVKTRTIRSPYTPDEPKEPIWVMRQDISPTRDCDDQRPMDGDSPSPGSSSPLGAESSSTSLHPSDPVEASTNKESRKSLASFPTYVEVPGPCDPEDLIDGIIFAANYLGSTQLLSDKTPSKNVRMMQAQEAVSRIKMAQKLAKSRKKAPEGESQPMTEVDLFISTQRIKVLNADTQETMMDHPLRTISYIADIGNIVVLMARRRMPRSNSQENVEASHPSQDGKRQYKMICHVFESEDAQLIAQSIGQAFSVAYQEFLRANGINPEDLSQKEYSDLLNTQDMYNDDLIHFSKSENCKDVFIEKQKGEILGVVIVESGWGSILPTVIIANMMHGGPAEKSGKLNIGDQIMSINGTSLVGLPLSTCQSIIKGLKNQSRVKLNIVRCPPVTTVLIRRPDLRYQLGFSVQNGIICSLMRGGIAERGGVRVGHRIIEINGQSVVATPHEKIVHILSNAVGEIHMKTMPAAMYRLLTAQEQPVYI

As a reminder, the AC50 is the midpoint of the concentration-response curve, whichever way the signal moves. The EC50 is the concentration that produces a half-maximal response. On to `O=C(CSc1nnc(Cn2nnc3ccccc32)o1)N(Cc1ccc(Cl)cc1)c1ccccc1`, for which the AC50 is 11.9 µM (active) in assay [1], 6.74 µM (active) in assay [3], 4.83 µM (active) in assay [4] and 2.29 µM (active) in assay [6]. The results for the IC50 in assay [2] and in assay [5] were 4.19 µM (active) and 1.11 µM (active), respectively. The EC50 in assay [7] is > 29.9 µM (inactive).

Regarding `C/C(=C\c1ccccc1)CN1CCN(c2ccccc2)CC1`, the EC50 is 92.5 µM (inactive) in [8] and 76.1 µM (inactive) in assay [9].

As to `CCC1CCCCN1C(=O)CCS(=O)(=O)c1ccccc1` (centres undefined), the IC50 in assay [10] and in assay [11] was > 67.6 µM (inactive) each time.

As to `Cc1cccc(N2C(=O)/C(=C\c3ccc(C(=O)O)cc3)c3ccccc3C2=O)c1`, the IC50 was > 100 µM (inactive) in assay [12] and 6.45 µM (active) in assay [13].

For the molecule `O=C(CSc1ccc(Br)cc1)N1CCN(C(=O)c2ccco2)CC1`, in assay [14], the IC50 is > 80 µM (inactive).

For the molecule `COc1ccc(/C(C)=N/NC(=O)c2nnn(-c3nonc3N)c2-c2ccccc2)cc1`, the IC50 in [15] is 35.2 µM (inactive); in [16] it was 8.15 µM (active); in [17], > 80 µM (inactive); in assay [18] it was > 59.6 µM (inactive); in [19], > 100 µM (inactive); in assay [20], > 59.6 µM (inactive). Besides, the values for the IC50 in [21] and in [22] were 30.2 µM (active) and > 59.6 µM (inactive), respectively.

With `O=C(NCCc1ccccc1Cl)[C@@H]1CCCN1C(=O)[C@@H](NS(=O)(=O)c1ccc(F)cc1F)c1ccccc1`, the EC50 was > 29.9 µM (inactive) in assay [23] and 12.4 µM (inactive) in assay [26]. Moreover, the IC50 in [24] was 5.69 µM (active); in assay [25] it was > 29.9 µM (inactive).

Turning to `CC(C)n1cc(/C=N/Nc2ccc(Cl)c(C(=O)O)c2)c2ccccc21`, the IC50 was 102 µM (active) in assay [27]; 3.26 µM (active) in [28]; > 59.6 µM (inactive) in [18]; 41.8 µM (active) in assay [29]; > 66.6 µM (inactive) in [30]; > 59.6 µM (inactive) in assay [20]. The values for the IC50 in assay [22] and in assay [31] were > 59.6 µM (inactive) and > 50 µM (inactive), respectively.
